Results published in publication PMC3602246 (BMC Pharmacology & Toxicology, 2013).
“Also recorded” adds a separate entry of the source. Read-outs that look alike come from different tables or passages of the source.

What was measured:
[1] = target: T1, human kappa opioid receptor (Homo sapiens, UniProt P41145); format: cell-based
T1 construct: FLAG; expressed in transfected cells

[2] = target: T1, human kappa opioid receptor; format: cell-based; remark: listed apart in the source
[3] = tested on: MOR; conditions: cited from earlier work; for Ki: read-out: Ki, affinity binding to the MOR
[4] = tested on: KOR; conditions: cited from earlier work; for Ki: read-out: Ki, affinity binding to the KOR
[5] = target: T1, human kappa opioid receptor; format: cell-based; conditions: read-out: IC50, single phase inhibition of BRL-52537 DMR
[6] = tested on: DOR; conditions: cited from earlier work; for Ki: read-out: Ki, affinity binding to the DOR
[7] = target: T2, human mu opioid receptor (MOR1) (Homo sapiens, UniProt P35372); format: cell-based
T2 construct: FLAG; expressed in transfected cells

[8] = target: T2, human mu opioid receptor (MOR1); format: cell-based; conditions: HEK-MOR; ligand 10 μM, 1 hr; DAMGO 10 μM
[9] = read-out: EC50, first phase of biphasic DMR dose response
[10] = read-out: EC50, second phase of biphasic DMR dose response

T1 sequence (P41145 whole entry): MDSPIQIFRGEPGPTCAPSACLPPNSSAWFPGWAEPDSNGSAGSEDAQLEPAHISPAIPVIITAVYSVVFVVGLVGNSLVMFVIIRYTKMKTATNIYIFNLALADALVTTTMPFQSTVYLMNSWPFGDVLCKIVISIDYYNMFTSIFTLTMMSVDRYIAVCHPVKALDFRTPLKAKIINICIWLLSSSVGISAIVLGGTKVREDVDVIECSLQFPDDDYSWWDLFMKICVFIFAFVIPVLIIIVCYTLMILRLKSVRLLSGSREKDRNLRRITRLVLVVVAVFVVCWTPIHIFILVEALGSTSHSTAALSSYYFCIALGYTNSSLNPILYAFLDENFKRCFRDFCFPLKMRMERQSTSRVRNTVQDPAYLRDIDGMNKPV
T2 sequence (P35372 whole entry): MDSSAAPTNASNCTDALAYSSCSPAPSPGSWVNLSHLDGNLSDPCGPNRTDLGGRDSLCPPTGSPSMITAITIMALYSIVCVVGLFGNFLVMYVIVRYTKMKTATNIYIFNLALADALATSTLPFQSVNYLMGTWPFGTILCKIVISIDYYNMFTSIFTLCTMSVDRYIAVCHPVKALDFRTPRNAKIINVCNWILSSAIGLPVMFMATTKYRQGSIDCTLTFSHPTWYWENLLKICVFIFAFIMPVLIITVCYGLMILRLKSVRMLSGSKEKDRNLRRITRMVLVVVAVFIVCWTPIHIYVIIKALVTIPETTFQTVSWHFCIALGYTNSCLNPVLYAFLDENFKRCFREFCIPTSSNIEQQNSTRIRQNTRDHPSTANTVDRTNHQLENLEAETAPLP

COC(=O)[C@@H]1C[C@H](OC(C)=O)C(=O)[C@H]2[C@@]1(C)CC[C@H]1C(=O)O[C@H](c3ccoc3)C[C@]21C [Salvinorin A]
DMR agonist activity classification, KOR [1]: Full agonist
ligand DMR in PTX-pretreated cells [2]: detectable P-DMR

CN(C(=O)Cc1ccc(Cl)c(Cl)c1)[C@H](CN1CCCC1)c1cccc(N=C=S)c1 [DIPPA]
DMR agonist activity classification, KOR [1]: Full agonist
saturable DMR amplitude, first phase of biphasic dose response [1]: 138±8 pm
saturable DMR amplitude, second phase of biphasic dose response [1]: 205±9 pm
EC50 [1, 9]: 13.4 ± 1.5 nM
EC50 [1, 10]: 240 ± 11.2 nM
IC50 [5]: 455 ± 32.3 nM
ligand DMR in PTX-pretreated cells [2]: detectable P-DMR
IC50 ([3]; read-out: IC50, affinity binding to the MOR): 1800 nM
IC50 ([6]; read-out: IC50, affinity binding to the DOR): > 1000 nM
IC50 ([4]; read-out: IC50, affinity binding to the KOR): 2.21 nM

O=C1/C(=C/c2ccccc2)C[C@@]2(O)[C@H]3Cc4ccc(O)c5c4[C@@]2(CCN3CC2CC2)[C@H]1O5 [BNTX]
DMR agonist activity classification, MOR [7]: off-target
DMR agonist activity classification, KOR [1]: off-target
Ki [3]: 18 nM
Ki [6]: 0.66 nM
Ki [4]: 55 nM

Dynorphin A (1–8) (YGGFLRRI; Dynorphin A(1-8); UniProt P01213 207-214, looked up, fragment)
DMR agonist activity classification, MOR [7]: Full agonist
Ki [3]: 22.3 nM
Ki [6]: 32.6 nM

NC(=O)[C@H](Cc1ccccc1)NC(=O)[C@H](Cc1c[nH]c2ccccc12)NC(=O)[C@@H]1CCCN1C(=O)[C@@H](N)Cc1ccc(O)cc1 [Endomorphin-1]
Ki [6]: > 500 nM

COC(=O)N1CCN(C(=O)Cc2ccc(Cl)c(Cl)c2)C(CN2CCCC2)C1 (stereo not drawn) [GR 89696]
DMR agonist activity classification, KOR [1]: Full agonist
ligand DMR in PTX-pretreated cells [2]: detectable P-DMR
Ki [4]: 41.7 nM

COC(=O)/C=C/C(=O)N[C@@H]1CC[C@@]2(O)[C@H]3Cc4ccc(O)c5c4[C@@]2(CCN3CC2CC2)[C@H]1O5 [β-Funaltrexamine]
Ki [3]: 0.33 nM
Ki [6]: 48 nM
Ki [4]: 2.8 nM

DSLET
DMR agonist activity classification, MOR [7]: Full agonist
Ki [3]: 120 nM

Oc1ccc2c3c1O[C@H]1c4oc5ccccc5c4C[C@@]4(O)[C@@H](C2)N(CC2CC2)CC[C@]314 [Naltriben]
blockage of the DAMGO response [8]: partial blockage
Ki [3]: 80.8 nM
Ki [6]: 0.4 nM
Ki [4]: > 10000 nM

Dynorphin B
Ki [6]: 12.8 nM

DTLET
DMR agonist activity classification, MOR [7]: Full agonist
Ki [6]: 22 nM
Ki [4]: > 10000 nM

NC(=O)[C@H](Cc1ccccc1)NC(=O)[C@H](Cc1ccccc1)NC(=O)[C@@H]1CCCN1C(=O)[C@@H](N)Cc1ccc(O)cc1 [Endomorphin-2]
Ki [3]: 0.43 nM
Ki [6]: > 500 nM

Oc1ccc2c3c1O[C@H]1c4[nH]c5c(c4C[C@@]4(O)[C@@H](C2)N(CC2CC2)CC[C@]314)C[C@@]1(O)[C@H]2Cc3ccc(O)c4c3[C@@]1(CCN2CC1CC1)[C@H]5O4 [Nor-Binaltorphimine]
blockage of the DAMGO response [8]: partial blockage
DMR under all eight assay conditions [2]: absence of any DMR; also recorded: did not trigger any DMR response under any conditions

O=C(Cc1ccc(Cl)c(Cl)c1)N1CCCCC1CN1CCCC1 (stereo not drawn) [BRL-52537]
DMR agonist activity classification, KOR [1]: Full agonist
DMR response at 9 min poststimulation [1]: 213±21 pm
saturable DMR amplitude, first phase of biphasic dose response [1]: 120±6 pm
saturable DMR amplitude, second phase of biphasic dose response [1]: 207±13 pm
EC50 [1, 9]: 0.0356 ± 0.0031 nM
EC50 [1, 10]: 26 ± 1.9 nM
IC50 [5]: 4.1 ± 0.23 nM
ligand DMR in PTX-pretreated cells [2]: detectable P-DMR
Ki [3]: 1560 nM
Ki [4]: 0.24 nM

COc1ccc2c3c1O[C@H]1[C@@H](O)C=C[C@H]4[C@@H](C2)NCC[C@@]341 [(−)-Norcodeine]
Ki [3]: 267 nM

Oc1ccc2c3c1O[C@H]1c4[nH]c5ccccc5c4C[C@@]4(O)[C@@H](C2)N(CC2CC2)CC[C@]314 [Naltrindole]
blockage of the DAMGO response [8]: partial blockage

CC1(C)SSC(C)(C)[C@@H](NC(=O)[C@@H](N)Cc2ccc(O)cc2)C(=O)NCC(=O)N[C@@H](Cc2ccccc2)C(=O)N[C@H]1C(=O)O [DPDPE]
Ki [3]: 600 nM
Ki [4]: 12000 nM

CN(C(=O)Cc1ccc(Cl)c(Cl)c1)C(CN1CCCC1)c1cccc(OCC(=O)O)c1 (stereo not drawn) [ICI 204,448]
Ki [3]: > 1000 nM
Ki [6]: > 1000 nM
Ki [4]: 2.69 nM

Deltorphin II
Ki [3]: > 1000 nM
Ki [6]: 3.3 nM
Ki [4]: > 1000 nM

C[C@@H](NC(=O)[C@@H](N)Cc1ccc(O)cc1)C(=O)NCC(=O)N(C)[C@@H](Cc1ccccc1)C(=O)NCCO [DAMGO]
DMR agonist activity classification, MOR [7]: Full agonist
DMR response at 9 min poststimulation [7]: 240±17 pm
saturable DMR amplitude, first phase of biphasic dose response [1]: 139±6 pm
saturable DMR amplitude, second phase of biphasic dose response [1]: 200±8 pm
Ki [4]: > 20000 nM

Nociceptin
Ki [3]: 270 nM
Ki [6]: > 1000 nM
Ki [4]: > 1000 nM

DADLE
Ki [3]: 150 nM
Ki [6]: 0.63 nM
Ki [4]: 1900 nM

C=CC[N+]1(C)CC[C@]23c4c5ccc(O)c4O[C@H]2C(=O)CC[C@@]3(O)[C@H]1C5 (stereo partly drawn) [Naloxone methiodide]
blockage of the DAMGO response [8]: partial blockage
Ki [3]: 28.9 nM
Ki [6]: 204 nM
Ki [4]: 1010 nM

α-Neoendorphin (YGGFLRKYPK; Alpha-neoendorphin; UniProt P01213 175-184, looked up)
DMR agonist activity classification, KOR [1]: Full agonist
ligand DMR in PTX-pretreated cells [2]: detectable P-DMR
Ki [6]: 1.17 nM
Ki [4]: 1.4 nM

Dynorphin A (1–13)
Ki [3]: 31 nM
Ki [6]: > 1000 nM
Ki [4]: 0.98 nM

Dynorphin A (2–13)
Ki [4]: 680 nM

(Met5)-Enkephalin
Ki [3]: 3 nM
Ki [6]: 2 nM
Ki [4]: 2.9 nM

Oc1ccc2c3c1O[C@H]1c4c(c5ccccc5n4Cc4ccccc4)C[C@@]4(O)[C@@H](C2)N(CC2CC2)CC[C@]314 [N-Benzylnaltrindole]
blockage of the DAMGO response [8]: partial blockage
IC50 ratio at the MOR [3]: 11.2
IC50 ratio at the DOR [6]: 459
IC50 ratio at the KOR [4]: 1.3

C=CCN1CCC2(C)c3cc(O)ccc3CC1C2C (stereo not drawn) [SKF10047]
Ki [3]: 1900 nM
Ki [6]: 19000 nM
Ki [4]: 1600 nM

C=CCN1CC[C@]23CCCC[C@H]2[C@H]1Cc1ccc(O)cc13 [Levallorphan]
Ki [3]: 1.7 nM
Ki [6]: 1 nM
Ki [4]: 0.3 nM
